From PMC1431542, “Cyclic nucleotide specific phosphodiesterases of Leishmania major” (BMC Microbiology, 2006)

Columns and labels:
LmjPDEB1 = target: T1, LmjPDEB1 (Leishmania major, UniProt Q6S996); test: 3H-cAMP phosphodiesterase assay in yeast lysate; type: cell-based
T1 construct: gene PDEB1; full-length, hemagglutinin-tagged
T1 sequence (Q6S996 1-940): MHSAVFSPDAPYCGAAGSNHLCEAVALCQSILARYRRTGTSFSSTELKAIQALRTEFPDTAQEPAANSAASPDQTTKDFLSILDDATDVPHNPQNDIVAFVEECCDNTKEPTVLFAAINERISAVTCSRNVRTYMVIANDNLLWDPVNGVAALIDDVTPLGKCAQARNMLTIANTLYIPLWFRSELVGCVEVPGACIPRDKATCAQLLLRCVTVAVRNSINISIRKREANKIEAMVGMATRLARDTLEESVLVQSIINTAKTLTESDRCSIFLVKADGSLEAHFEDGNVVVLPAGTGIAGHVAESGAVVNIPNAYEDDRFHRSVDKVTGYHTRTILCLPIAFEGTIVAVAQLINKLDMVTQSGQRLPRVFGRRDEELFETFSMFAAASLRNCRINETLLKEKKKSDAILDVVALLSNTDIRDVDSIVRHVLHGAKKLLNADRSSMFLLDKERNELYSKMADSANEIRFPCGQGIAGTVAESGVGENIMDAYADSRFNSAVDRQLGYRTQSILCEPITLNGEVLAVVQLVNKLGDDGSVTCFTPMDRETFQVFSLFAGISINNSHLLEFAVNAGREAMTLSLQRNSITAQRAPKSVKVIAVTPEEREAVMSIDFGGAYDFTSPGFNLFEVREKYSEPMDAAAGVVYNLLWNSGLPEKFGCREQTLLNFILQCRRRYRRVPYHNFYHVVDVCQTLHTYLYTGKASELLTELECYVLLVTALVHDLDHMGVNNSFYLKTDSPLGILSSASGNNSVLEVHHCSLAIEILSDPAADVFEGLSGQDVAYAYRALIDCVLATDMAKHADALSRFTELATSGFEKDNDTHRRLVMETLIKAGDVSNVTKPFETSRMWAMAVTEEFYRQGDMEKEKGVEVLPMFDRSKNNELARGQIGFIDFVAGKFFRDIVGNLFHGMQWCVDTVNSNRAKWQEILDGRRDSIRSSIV

LmjPDEB2 = target: T2, LmjPDEB2 (Leishmania major, UniProt Q6S997); test: biochemical
T2 construct: gene PDEB2; full-length, hemagglutinin-tagged
T2 sequence (Q6S997 entry or part of it): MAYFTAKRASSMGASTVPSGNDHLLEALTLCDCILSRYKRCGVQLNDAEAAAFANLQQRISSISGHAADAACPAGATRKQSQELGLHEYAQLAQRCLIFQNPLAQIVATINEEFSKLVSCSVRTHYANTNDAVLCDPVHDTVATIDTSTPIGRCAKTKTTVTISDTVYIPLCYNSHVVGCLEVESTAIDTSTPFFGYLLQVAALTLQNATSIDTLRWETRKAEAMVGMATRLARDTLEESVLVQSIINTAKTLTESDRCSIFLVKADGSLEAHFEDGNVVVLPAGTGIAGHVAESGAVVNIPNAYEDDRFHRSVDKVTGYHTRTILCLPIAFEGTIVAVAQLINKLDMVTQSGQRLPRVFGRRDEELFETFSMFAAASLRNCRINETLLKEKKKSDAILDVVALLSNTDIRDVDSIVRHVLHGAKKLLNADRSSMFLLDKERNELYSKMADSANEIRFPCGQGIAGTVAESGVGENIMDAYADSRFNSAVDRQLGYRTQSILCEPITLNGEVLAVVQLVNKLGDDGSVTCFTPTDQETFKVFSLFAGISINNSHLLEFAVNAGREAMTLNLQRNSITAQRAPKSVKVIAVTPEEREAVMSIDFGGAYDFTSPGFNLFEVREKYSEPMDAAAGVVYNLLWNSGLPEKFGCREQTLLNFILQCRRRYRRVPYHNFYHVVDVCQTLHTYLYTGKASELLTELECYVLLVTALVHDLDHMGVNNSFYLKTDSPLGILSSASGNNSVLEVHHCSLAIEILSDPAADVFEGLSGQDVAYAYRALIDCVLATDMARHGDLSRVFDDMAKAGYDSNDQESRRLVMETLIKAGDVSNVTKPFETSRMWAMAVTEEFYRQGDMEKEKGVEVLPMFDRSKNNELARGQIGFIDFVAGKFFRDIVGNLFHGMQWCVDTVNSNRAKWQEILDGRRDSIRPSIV

Compound | 3H-cAMP phosphodiesterase assay in yeast lysate (LmjPDEB1) | IC50 (LmjPDEB2) [µM]
CCOC(=O)c1cnc2c(cnn2CC)c1NN=C(C)C [compound 3, etazolate] | Only dipyridamole, trequinsin and etazolate exhibited at least a moderate potency. | 
OCCN(CCO)c1nc(N2CCCCC2)c2nc(N(CCO)CCO)nc(N3CCCCC3)c2n1 [compound 4, dipyridamole] | Only dipyridamole, trequinsin and etazolate exhibited at least a moderate potency. | 29
COc1cc2c(cc1OC)-c1c/c(=N\c3c(C)cc(C)cc3C)n(C)c(=O)n1CC2 [compound 9, trequinsin] | Only dipyridamole, trequinsin and etazolate exhibited at least a moderate potency. | 96
